Among the data in the NIST ThermoML archive (doi:10.1016/j.jct.2006.09.006) are mass density values, retold here.

± gives the expanded uncertainty stated by the source.

The nature of data set [1]: xn = mol fraction of the nth substance listed. The conditions noted are these: 298.15 K, 101.3 kPa, Liquid.
For data set [2] the following is noted: 298.15 K; 101.33 kPa; Liquid.

Regarding `FC(F)(F)c1ccccc1` [(trifluoromethyl)benzene] + CCO, the mass density in data set [1] (x1 = 0.1051) amounted to 864 ± 0.4 kg/m3; in data set [1] (x1 = 0.1999) it was 921.7 ± 0.3 kg/m3; in data set [1] (x1 = 0.2454), 945.8 ± 0.3 kg/m3; in data set [1] (x1 = 0.3059), 975.2 ± 0.2 kg/m3; in data set [1] (x1 = 0.4057) it was 1017.5 ± 0.2 kg/m3; in data set [1] (x1 = 0.5022), 1052.8 ± 0.3 kg/m3. In addition, the mass density stood at 1079.7 ± 0.3 kg/m3 in data set [1] (x1 = 0.5855), 1113.7 ± 0.4 kg/m3 in data set [1] (x1 = 0.7052), 1134.9 ± 0.4 kg/m3 in data set [1] (x1 = 0.7886) and 1161.5 ± 0.4 kg/m3 in data set [1] (x1 = 0.9032).

Turning to `OCC(F)(F)F` [2,2,2-trifluoroethanol], the mass density in data set [2] was determined as 1382.4 ± 1.5 kg/m3.

Take `CC(C)OC(C)C` [diisopropyl ether]: in data set [2], the mass density is listed as 719.17 ± 0.96 kg/m3.

Turning to `CCO` [ethanol], in data set [2], the mass density turned out to be 785.6 ± 0.24 kg/m3.

As for `FC(F)(F)c1ccccc1` [(trifluoromethyl)benzene], the mass density in data set [2] is reported as 1182.18 ± 0.48 kg/m3.

With `CC(C)OC(C)C` [diisopropyl ether] + CCO, the mass density in data set [1] (x1 = 0.1072) came to 774.5 ± 0.5 kg/m3; in data set [1] (x1 = 0.2007), 766.1 ± 0.5 kg/m3; in data set [1] (x1 = 0.3086), 757.6 ± 0.5 kg/m3; in data set [1] (x1 = 0.403), 751 ± 0.5 kg/m3; in data set [1] (x1 = 0.4811), 746 ± 0.6 kg/m3; in data set [1] (x1 = 0.6142), 738.3 ± 0.6 kg/m3. Moreover, the mass density in data set [1] (x1 = 0.6993) was 733.8 ± 0.6 kg/m3; in data set [1] (x1 = 0.7432), 731.7 ± 0.6 kg/m3; in data set [1] (x1 = 0.7863) it was 729.6 ± 0.6 kg/m3; in data set [1] (x1 = 0.8965), 724.4 ± 0.6 kg/m3; in data set [1] (x1 = 0.9129), 723.6 ± 0.6 kg/m3.

On to `OCC(F)(F)F` [2,2,2-trifluoroethanol] + CC(C)OC(C)C, for which the mass density was found to be 1320 ± 1 kg/m3 in data set [1] (x2 = 0.0511); 1258.5 ± 0.9 kg/m3 in data set [1] (x2 = 0.1069); 1175.7 ± 0.7 kg/m3 in data set [1] (x2 = 0.1922); 1127.3 ± 0.6 kg/m3 in data set [1] (x2 = 0.2483); 1088.9 ± 0.5 kg/m3 in data set [1] (x2 = 0.2968); 1013.8 ± 0.4 kg/m3 in data set [1] (x2 = 0.4021). Also, the mass density in data set [1] (x2 = 0.4927) is 957.1 ± 0.5 kg/m3; in data set [1] (x2 = 0.6059) it was 894 ± 0.5 kg/m3; in data set [1] (x2 = 0.6997), 846.9 ± 0.5 kg/m3; in data set [1] (x2 = 0.8024), 799.8 ± 0.6 kg/m3; in data set [1] (x2 = 0.9113), 754.2 ± 0.6 kg/m3.

As a reminder, the mass density is the mass of a sample divided by its volume.
